Test results: patent US20250145592A1 (NICO Therapeutics, Inc., priority 2022, published 2025)
Where two headings read alike, the source gives them in different places.

System: IL-1β secretion in THP-1 cells (NLRP3)
Experiment: IL-1β secretion assay in PMA-differentiated THP-1 cells stimulated with LPS and nigericin (ELISA readout)
Assay type: cell-based
Details: Homo sapiens, IL-1β ELISA
Protocol: Compounds as provided herein were tested in the following assay. Cell culture medium employed contained RPMI 1640 medium (89%), FBS (10%), Pen/Strep (1%), and 2-mercaptoethanol (0.05 mM). Freezing medium was made up of 90% FBS and 10% DMSO. THP-1 cells were removed from the liquid nitrogen and placed into a 37° C. water bath to thaw, until signs of ice dissipated. The cells were then added to 9 mL of warm cell culture medium and centrifuged for 5 minutes at 1000 rpm. The supernatant was discarded, and the cells were resuspended in new cell culture medium. THP-1 cells were then split and cultured in the cell culture medium, being passaged every 2-3 days with the cell density will be maintained between 5×10^5 and 1.5×10^6 viable cells/mL.
To freeze, cells were resuspended with fresh freezing medium, adjusting the cell density to 5×10^6 cells/mL. The cell suspension was partitioned into 1 mL aliquots per vial, and the vials were transferred to a −80° C. freezer. After one day at −80° C., the cell vials were transferred to liquid nitrogen freezer for storage.
PMA was dissolved in DMSO to make a stock solution at 5 mg/ml and stored in 10 μl aliquots at −20° C. for single use. PMA is added to normal growth medium. LPS was diluted with 1 mL of water solution to provide a 1 mg/mL stock solution and stored in 15 μl aliquots at −20° C. for single use. Nigericin is diluted in ice cold 100% ethanol to 5 mg/ml (6.7 mM) and stored in 75 μL aliquots at −20° C. for single use. Serum-free media contains RPMI 1640 medium (99%), Pen/Strep (1%), and 2-mercaptoethanol (0.05 mM). The two control conditions used to qualify and normalize test compound dose-response curves were as follows: High Control=25 ng/mL LPS, […], 0.5% DMSO, Low Control=25 ng/mL, LPS, 0.5% DMSO.
THP-1 cells were diluted to provide a suspension at a concentration of 1.0×10^6 cells/mL with the total volume of suspension required to enable the desired number of assay plates. The growth media was supplemented with PMA (5 ng/mL final concentration) and the cells were incubated at 37° C. under a humidified atmosphere of 5% CO2 for 40 h.
All media was carefully aspirated from each culture flask. The cells were washed carefully with 1×DPBS. The cells were then briefly digested with trypsin LE for 5 minutes at 23° C. and immediately resuspended in cell growth media. After resuspension, the cells were centrifuged at 1000 rpm for 3 minutes and the supernatant was discarded. The cells were resuspended in DPBS and once again centrifuged at 1000 rpm for 5 minutes. The supernatant was discarded and the cell pellet was resuspended in serum-free media supplemented with LPS (25 ng/mL final concentration) to enable the distribution of 30K THP-1 cells within 45 μL of media into each well of 384-well PDL-coated plates. The 384-well plates were then incubated at 37° C. under a humidified atmosphere of 5% CO2 for 2 h. Following this period, test compounds were dispensed by Tecan across the desired concentration range with all wells normalized to a final 0.5% DMSO concentration. The plates were then then incubated at 37° C. under a humidified atmosphere of 5% CO2 for 1 h. Following this period, 5 μL of the 5 mg/mL nigericin stock solution was added to each of the appropriate wells and plates were centrifuged at 1000 rpm for 30 seconds. The plates were the immediately reintroduced to the incubator at 37° C. under a humidified atmosphere of 5% CO2 for 2 h. After this time, 35 μL/well of supernatant was collected and transferred into v-bottom plate and centrifuged at 1000 rpm for 1 minute. These supernatant aliquots were analyzed using an IL-Iβ detection kit as described below. If needed, the test samples could be snap frozen and stored at −80° C. until analyzed.
To prepare each ELISA plate, capture antibody (mAb Mt175) was diluted with PBS to a final concentration of […] and then 20 µL of this solution was added to each well of the ELISA plate.
Each plate was allowed to incubate overnight at 4° C. […]

[1] = THP-1, Table 3, LPS 25 ng/mL + nigericin, read-out: Activity (IC50 class)
[2] = THP-1, Table 4, LPS 25 ng/mL + nigericin, read-out: Activity (IC50)

IC50 [1] [nM] | IC50 [2] [nM] | Compound
< 1000 | 447 | COC1(C(F)(F)F)CC(Oc2nn(CC(=O)Nc3ncc(F)cn3)c(=O)c3ccc(Br)cc23)C1 (stereo not drawn) [Example 43]
< 1000 | 492 | O=C(Cn1nc(O[C@H]2C[C@@H](F)C2)c2cc(Br)ccc2c1=O)Nc1ncc(F)cn1 [Example 44, 2-[6-bromo-4-(cis-3-fluorocyclobutyl)oxy-1-oxophthalazin-2-yl]-N-(5-fluoropyrimidin-2-yl)acetamide]
< 1000 | 912 | O=C(Cn1nc(O[C@H]2C[C@H](F)C2)c2cc(Br)ccc2c1=O)Nc1ncc(F)cn1 [Example 45, 2-[6-bromo-4-(trans-3-fluorocyclobutyl)oxy-1-oxophthalazin-2-yl]-N-(5-fluoropyrimidin-2-yl)acetamide]
< 1000 | 862 | O=C(Cn1nc(OC2CC3CC[C@@H]2C3)c2cc(Br)ccc2c1=O)Nc1ncc(F)cn1 (stereo partly drawn) [Example 46, 2-[4-[[(1r,2r,4s)-2-bicyclo[2.2.1]heptanyl]oxy]-6-bromo-1-oxophthalazin-2-y1]-N-(5-fluoropyrimidin-2-yl)acetamide]
1000 to 10000 | 1400 | O=C(Cn1nc(OCCF)c2cc(Br)ccc2c1=O)Nc1ncc(F)cn1 [Example 47, 2-[6-bromo-4-(2-fluoroethoxy)-1-oxophthalazin-2-yl]-N-(5-fluoropyrimidin-2-yl)acetamide]
< 1000 | 568 | O=C(Cn1nc(OCC(F)F)c2cc(Br)ccc2c1=O)Nc1ncc(F)cn1 [Example 48, 2-[6-bromo-4-(2,2-difluoroethoxy)-1-oxophthalazin-2-yl]-N-(5-fluoropyrimidin-2-yl)acetamide]
1000 to 10000 | 1510 | O=C(Cn1nc(OC2CC(F)(F)C2)c2cc(Br)ccc2c1=O)Nc1ncc(F)cn1 [Example 49, 2-[6-bromo-4-(3,3-difluorocyclobutyl)oxy-1-oxophthalazin-2-yl]-N-(5-fluoropyrimidin-2-yl)acetamide]
< 1000 | 343 | O=C(Cn1nc(OCC2CC2)c2cc(Br)ccc2c1=O)Nc1ncc(F)cn1 [Example 50, 2-[6-bromo-4-(cyclopropylmethoxy)-1-oxophthalazin-2-yl]-N-(5-fluoropyrimidin-2-yl)acetamide]
– | 389 | O=C(Cn1nc(OC2C[C@@H]2F)c2cc(Br)ccc2c1=O)Nc1ncc(F)cn1 (stereo partly drawn) [Example 53, 2-[6-bromo-4-[2-trans-fluorocyclopropyl]oxy-1-oxophthalazin-2-yl]-N-(5-fluoropyrimidin-2-yl)acetamide]
– | 490 | O=C(Cn1nc(OC2C[C@H]2F)c2cc(Br)ccc2c1=O)Nc1ncc(F)cn1 (stereo partly drawn) [Example 54, 2-[6-bromo-4-[2-cis-fluorocyclopropyl]oxy-1-oxophthalazin-2-yl]-N-(5-fluoropyrimidin-2-yl)acetamide]
